Inconclusive results and toxic doses are left out. Rule for the calls: active = survival T/C of 150% or more; inactive = T/C below 125% in these data.
Test system: CD2F1 mice, L1210 leukemia ip, survival T/C
Assay: NCI In Vivo Anticancer Drug Screen. Data for tumor model L1210 Leukemia (intraperitoneal) in CD2F1 (CDF1) mice
Conditions: endpoint: mean survival time, higher = longer survival
Method in brief: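 Transplantable tumor in mice; compound-treated vs vehicle-treated groups. Read-out = treated/control ratio of the measured endpoint.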

[1] = dose: 100.0 mg/kg/injection, schedule: Q01DX009 (ip), vehicle: saline with Tween-80
[2] = dose: 200.0 mg/kg/injection, schedule: Q01DX009 (ip), vehicle: saline with Tween-80
[3] = dose: 400.0 mg/kg/injection, schedule: Q01DX009 (ip), vehicle: saline with Tween-80
[4] = dose: 25.0 mg/kg/injection, schedule: Q04DX002 (ip), vehicle: saline with Tween-80
[5] = dose: 50.0 mg/kg/injection, schedule: Q04DX002 (ip), vehicle: saline with Tween-80
[6] = dose: 100.0 mg/kg/injection, schedule: Q01DX009 (ip), vehicle: saline
[7] = dose: 100.0 mg/kg/injection, schedule: Q04DX003 (ip), vehicle: saline with Tween-80
[8] = dose: 200.0 mg/kg/injection, schedule: Q04DX003 (ip), vehicle: saline with Tween-80
[9] = dose: 400.0 mg/kg/injection, schedule: Q04DX003 (ip), vehicle: saline with Tween-80
[10] = dose: 6.25 mg/kg/injection, schedule: Q01DX009 (ip), vehicle: Klucel (hydroxypropylcellulose) (HPC)
[11] = dose: 100.0 mg/kg/injection, schedule: Q04DX002 (ip), vehicle: saline with Tween-80
[12] = dose: 200.0 mg/kg/injection, schedule: Q04DX002 (ip), vehicle: saline with Tween-80
[13] = dose: 400.0 mg/kg/injection, schedule: Q04DX002 (ip), vehicle: saline with Tween-80
[14] = dose: 75.0 mg/kg/injection, schedule: Q01DX001 (ip), vehicle: saline
[15] = dose: 150.0 mg/kg/injection, schedule: Q01DX001 (ip), vehicle: saline
[16] = dose: 300.0 mg/kg/injection, schedule: Q01DX001 (ip), vehicle: saline

Measured: T/C

O=C(O)CCOc1ccc([N+](=O)[O-])cc1
inactive: [1] 96 % of control | [2] 98 % of control | [3] 94 % of control

CCN(CC)c1cc(Cl)ccc1Cl
inactive: dose: 25.0 mg/kg/injection, schedule: Q01DX009 (ip), vehicle: saline 102 % of control | [4] 91 % of control | dose: 50.0 mg/kg/injection, schedule: Q01DX009 (ip), vehicle: saline 101 % of control | [5] 95 % of control | dose: 100.0 mg/kg/injection, schedule: Q01DX001 (ip), vehicle: saline with Tween-80 98 % of control | [6] 101 % of control

COc1ccc2nc3cc(Cl)ccc3c(Nc3ccc(NS(C)(=O)=O)cc3)c2n1
inactive: dose: 12.5 mg/kg/injection, schedule: Q01DX009 (ip), vehicle: other 96 % of control | dose: 25.0 mg/kg/injection, schedule: Q01DX009 (ip), vehicle: other 104 % of control | dose: 50.0 mg/kg/injection, schedule: Q01DX009 (ip), vehicle: other 96 % of control | dose: 100.0 mg/kg/injection, schedule: Q01DX009 (ip), vehicle: other 94 % of control

CC1COC(=O)O1 (stereo not given)
inactive: [6] 101 % of control | [7] 97 % of control | dose: 200.0 mg/kg/injection, schedule: Q01DX009 (ip), vehicle: saline 98 % of control | [8] 97 % of control | dose: 400.0 mg/kg/injection, schedule: Q01DX009 (ip), vehicle: saline 101 % of control | [9] 96 % of control

CCC(C)(C)N
inactive: dose: 100.0 mg/kg/injection, schedule: Q04DX003 (ip), vehicle: saline 100 % of control | dose: 200.0 mg/kg/injection, schedule: Q04DX003 (ip), vehicle: saline 106 % of control | dose: 400.0 mg/kg/injection, schedule: Q04DX003 (ip), vehicle: saline 103 % of control

O=[N+]([O-])c1cc(S(=O)(=O)c2ccc(F)c([N+](=O)[O-])c2)ccc1F
inactive: [10] 98 % of control | dose: 12.5 mg/kg/injection, schedule: Q01DX009 (ip), vehicle: Klucel (hydroxypropylcellulose) (HPC) 98 % of control | dose: 25.0 mg/kg/injection, schedule: Q01DX009 (ip), vehicle: Klucel (hydroxypropylcellulose) (HPC) 98 % of control

CCCCCCCCCCCCCCCCCCSC1=CC(=O)C(OC)=C(OC)C1=O
inactive: dose: 3.13 mg/kg/injection, schedule: Q01DX009 (ip), vehicle: Klucel (hydroxypropylcellulose) (HPC) 90 % of control | [10] 88 % of control | dose: 50.0 mg/kg/injection, schedule: Q01DX009 (ip), vehicle: Klucel (hydroxypropylcellulose) (HPC) 94 % of control

Cc1ccccc1CS
inactive: [1] 93 % of control | [7] 103 % of control | [2] 94 % of control | [8] 100 % of control | [9] 104 % of control

COc1ccc(/C=C/C(CC(NO)c2ccc(OC)cc2)=N/O)cc1 (stereo not given)
inactive: dose: 12.5 mg/kg/injection, schedule: Q04DX003 (ip), vehicle: saline with Tween-80 101 % of control | dose: 25.0 mg/kg/injection, schedule: Q01DX001 (ip), vehicle: saline with Tween-80 103 % of control | dose: 25.0 mg/kg/injection, schedule: Q04DX003 (ip), vehicle: saline with Tween-80 101 % of control | dose: 50.0 mg/kg/injection, schedule: Q01DX001 (ip), vehicle: saline with Tween-80 104 % of control | dose: 50.0 mg/kg/injection, schedule: Q04DX003 (ip), vehicle: saline with Tween-80 102 % of control | [7] 95 % of control | dose: 200.0 mg/kg/injection, schedule: Q01DX001 (ip), vehicle: saline with Tween-80 97 % of control | [8] 98 % of control

CCN(CC)C(=O)SCCSC(=O)N(CC)CC
inactive: [4] 96 % of control | [5] 104 % of control | [11] 101 % of control | [12] 91 % of control | [13] 95 % of control

COC1CC(O)C2OC(c3ccccc3)OCC2O1 (stereo not given)
inactive: [7] 104 % of control | [8] 93 % of control | [9] 107 % of control

COc1ccc(NC(=O)Oc2c(Cl)cc(Cl)c3ccccc23)cc1
inactive: [11] 93 % of control | [12] 93 % of control | [13] 101 % of control

CC(C)NC(=O)C1CC2c3cccc4[nH]c(Br)c(c34)CC2N(C)C1 (stereo not given)
inactive: dose: 5.0 mg/kg/injection, schedule: Q01DX009 (ip), vehicle: saline with Tween-80 90 % of control | dose: 10.0 mg/kg/injection, schedule: Q01DX009 (ip), vehicle: saline with Tween-80 104 % of control | dose: 20.0 mg/kg/injection, schedule: Q01DX009 (ip), vehicle: saline with Tween-80 94 % of control

COc1ccc(CNC(C)(C#N)c2ccccc2)cc1OC (stereo not given)
inactive: [7] 107 % of control | [8] 93 % of control | [9] 98 % of control

C=C(NC(C)=O)C(=O)CCC(N)=O
inactive: dose: 5.0 mg/kg/injection, schedule: Q01DX009 (ip), vehicle: saline 101 % of control | dose: 10.0 mg/kg/injection, schedule: Q01DX009 (ip), vehicle: saline 95 % of control | dose: 10.0 mg/kg/injection, schedule: Q04DX003 (ip), vehicle: saline 93 % of control | dose: 20.0 mg/kg/injection, schedule: Q01DX009 (ip), vehicle: saline 98 % of control | dose: 20.0 mg/kg/injection, schedule: Q04DX003 (ip), vehicle: saline 97 % of control

O=C1O/C(=C\c2ccccc2)c2c(Br)c(Br)c(Br)c(Br)c21
inactive: dose: 37.5 mg/kg/injection, schedule: Q01DX009 (ip), vehicle: saline 96 % of control | dose: 75.0 mg/kg/injection, schedule: Q01DX009 (ip), vehicle: saline 96 % of control | dose: 150.0 mg/kg/injection, schedule: Q01DX009 (ip), vehicle: saline 98 % of control | dose: 300.0 mg/kg/injection, schedule: Q01DX009 (ip), vehicle: saline 100 % of control

CN(C)C(=O)C(=O)C1C=Cc2ccccc21 (stereo not given)
inactive: [1] 98 % of control | [2] 103 % of control | [3] 93 % of control

[I][Ni][I].c1ccc([PH+](c2ccccc2)c2ccccc2)cc1.c1ccc([PH+](c2ccccc2)c2ccccc2)cc1
inactive: [11] 87 % of control | [12] 91 % of control | [13] 87 % of control

CCC(CC)=NN(C)C
inactive: [14] 100 % of control | [15] 96 % of control | [16] 96 % of control

CNC(CCNCCc1ccccc1)CNCCc1ccccc1 (stereo not given)
inactive: [14] 97 % of control | [15] 107 % of control

CCSc1ncc(Br)c(Sc2nc(N)nc3nc[nH]c23)n1
active: dose: 6.25 mg/kg/injection, schedule: Q01DX Z (ip), vehicle: carboxymethylcellulose (CMC) 154 % of control
inactive: dose: 12.5 mg/kg/injection, schedule: Q01DX Z (ip), vehicle: carboxymethylcellulose (CMC) 100 % of control | dose: 25.0 mg/kg/injection, schedule: Q01DX Z (ip), vehicle: carboxymethylcellulose (CMC) 98 % of control | dose: 50.0 mg/kg/injection, schedule: Q01DX Z (ip), vehicle: carboxymethylcellulose (CMC) 87 % of control

CCC/C=C(\C)C(C#N)CC (stereo not given)
inactive: [14] 100 % of control | [15] 97 % of control | [16] 101 % of control

From PubChem BioAssay AID256 (DTP/NCI, 2004)
